Data: patent publication US20240150321A1, “PYRAZOLYLSULFONAMIDE COMPOUNDS AND THEIR USE IN THERAPY” (HOTSPOT THERAPEUTICS, INC., priority 2022, published 2024)
Read-outs that look alike come from different tables or passages of the source.

How the values were obtained:
[1] = target: Avi-tagged FL MALT-1 (Homo sapiens (Human), UniProt Q9UDY8); assay: MALT-1 Fluorogenic Peptide Cleavage Assay (MALT1 inhibition assay); format: biochemical; conditions: Ac-LRSR-AMC peptide substrate, 30 min pre-incubation, 90 min reaction at room temperature
Avi-tagged FL MALT-1, sequence (Q9UDY8 whole entry): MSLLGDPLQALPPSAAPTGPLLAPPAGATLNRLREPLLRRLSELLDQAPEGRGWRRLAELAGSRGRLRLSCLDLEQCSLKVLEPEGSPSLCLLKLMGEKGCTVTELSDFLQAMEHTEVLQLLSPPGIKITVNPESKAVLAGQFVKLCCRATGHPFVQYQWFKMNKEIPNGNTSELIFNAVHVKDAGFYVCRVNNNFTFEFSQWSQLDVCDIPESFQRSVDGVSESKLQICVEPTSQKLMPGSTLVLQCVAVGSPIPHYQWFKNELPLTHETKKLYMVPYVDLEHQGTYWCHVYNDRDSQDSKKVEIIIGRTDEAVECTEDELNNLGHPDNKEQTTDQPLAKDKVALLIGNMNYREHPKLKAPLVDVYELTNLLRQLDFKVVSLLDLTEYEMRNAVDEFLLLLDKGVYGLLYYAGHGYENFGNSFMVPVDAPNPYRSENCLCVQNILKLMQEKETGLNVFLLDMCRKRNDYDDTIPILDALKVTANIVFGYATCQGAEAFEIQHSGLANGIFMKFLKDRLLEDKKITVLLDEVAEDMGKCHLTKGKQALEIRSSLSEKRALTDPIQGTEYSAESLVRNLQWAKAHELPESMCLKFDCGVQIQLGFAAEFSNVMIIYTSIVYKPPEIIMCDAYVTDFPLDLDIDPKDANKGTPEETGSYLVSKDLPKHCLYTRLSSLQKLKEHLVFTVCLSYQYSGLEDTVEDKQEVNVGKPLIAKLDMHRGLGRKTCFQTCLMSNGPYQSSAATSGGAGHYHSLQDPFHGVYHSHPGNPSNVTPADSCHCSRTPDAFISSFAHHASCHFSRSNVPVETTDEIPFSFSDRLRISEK
Procedure, shortened: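 Cleavage of Ac-LRSR-AMC, read as fluorescence at 342/441 nm after 90 min at room temperature, with substrate working stocks of 50 μM (Km) or 280 μM (10×Km). Enzyme, Avi-tagged full-length MALT-1 (40 nM stock), was first pre-incubated 30 min with compound in citrate/HEPES pH 6.89 buffer with TCEP, EDTA, CHAPS and 2% DMSO; IC50 fitted from normalised % inhibition.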

[2] = tested on: NF-kB reporter in Jurkat cells; assay: NF-kB reporter assay in Jurkat cells stimulated with aCD3/aCD28/PMA; format: cell-based; conditions: read-out: NF-kB Reporter Assay IC50
Procedure, shortened: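 Luminescence (One-Glo) from the NF-kB reporter yielded IC50 values. Stimulation lasted 4 h at 37° C with aCD3, aCD28 and PMA (final 5, 5 and 0.03 […]), after 1 h compound pre-exposure of 25,000 Jurkat cells per well in serum-free RPMI.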

[3] = Homo sapiens, Jurkat cells, 1 hr compound pre-incubation, aCD3/aCD28/PMA stimulation 4 hr, One-Glo readout

SMILES | IC50 [1] | IC50 [2, 3] | IC50 ([2]; Jurkat cells, 1 hr compound pre-incubation, aCD3/aCD28/PMA stimulation 4 hr, One-Glo readout) | IC50 ([2]; Homo sapiens, Jurkat)
CCC(CC)(OC)c1ccnc(-n2cc(S(=O)(=O)Nc3c(OC)ccc4cnn(C)c34)cn2)c1 [Compound I-299, N-(6-Methoxy-1-Methyl-1H-Indazol-7-yl)-1-(4-(3-Methoxypentan-3-yl)Pyridin-2-yl)-1H-Pyrazole-4-Sulfonamide] | ≤ 400 nM | 400 to 1000 nM | – | –
Cn1ncc2ccc(C3CC3)c(NS(=O)(=O)c3cnn(-c4cc(C(F)(F)F)ncn4)c3)c21 [Compound I-53, N-(6-Cyclopropyl-1-Methyl-1H-Indazol-7-yl)-1-(6-(Trifluoromethyl)Pyrimidin-4-yl)-1H-Pyrazole-4-Sulfonamide] | ≤ 400 nM | < 400 nM | – | –
COc1ccc2cnn(C)c2c1NS(=O)(=O)c1cnn(-c2cc(C3CCO3)ccn2)c1 (centres unmarked) [Compound I-263, N-(6-methoxy-1-methyl-1H-indazol-7-yl)-1-(4-(oxetan-2-yl)pyridin-2-yl)-1H-pyrazole-4-sulfonamide] | 400 to 1000 nM | < 400 nM | – | –
COC[C@@H](O)c1ccnc(-n2cc(S(=O)(=O)Nc3cccc4cnn(C)c34)cn2)c1 [Compound I-304] | > 2500 nM | 400 to 1000 nM | – | –
Cc1n[nH]c2cccc(NS(=O)(=O)c3cnn(-c4cc(C5(O)COC5)ccn4)c3)c12 [Compound I-243] | > 2500 nM | – | 1000 to 2500 nM | –
O=S(=O)(c1cnn(-c2cc(C(F)(F)F)ccn2)c1)N1CCCCn2ncc3cccc1c32 [Compound I-396, 1-((1-(4-(trifluoromethyl)pyridin-2-yl)-1H-pyrazol-4-yl)sulfonyl)-2,3,4,5-tetrahydro-1H-[1,4]diazocino[3,2,1-hi]indazole] | > 2500 nM | – | – | > 2500 nM
Cn1ncc2cccc(NS(=O)(=O)c3cnn(-c4cc(N5CCCC5)ccn4)c3)c21 [Compound I-249, N-(1-methyl-1H-indazol-7-yl)-1-(4-(pyrrolidin-1-yl)pyridin-2-yl)-1H-pyrazole-4-sulfonamide] | > 2500 nM | < 400 nM | – | –
O=S(=O)(c1cnn(-c2cc(C(F)(F)F)ccn2)c1)N1CCCc2ccc3cn[nH]c3c21 [Compound I-393, 9-((1-(4-(trifluoromethyl)pyridin-2-yl)-1H-pyrazol-4-yl)sulfonyl)-6,7,8,9-tetrahydro-1H-pyrazolo[4,3-h]quinoline] | > 2500 nM | > 2500 nM | – | –
Cn1ncc2ccc(OC(F)(F)F)c(NS(=O)(=O)c3cnn(-c4cc(C(F)(F)F)ccn4)c3)c21 [Compound I-327, N-[1-methyl-6-(trifluoromethoxy)indazol-7-yl]-1-[4-(trifluoromethyl)pyridin-2-yl]pyrazole-4-sulfonamide] | ≤ 400 nM | – | – | < 400 nM
COc1ccc2[nH]nc(C)c2c1NS(=O)(=O)c1cnn(-c2ccnc(C(F)(F)F)c2)c1 [Compound I-79, N-(5-Methoxy-3-Methyl-1H-Indazol-4-yl)-1-(2-(Trifluoromethyl)Pyridin-4-yl)-1H-Pyrazole-4-Sulfonamide] | ≤ 400 nM | < 400 nM | – | –
COc1ccc2cnn(C)c2c1NS(=O)(=O)c1cnn(-c2cc(N3CCC(F)(F)C3)ccn2)c1 [Compound I-435, 1-(4-(3,3-difluoropyrrolidin-1-yl)pyridin-2-yl)-N-(6-methoxy-1-methyl-1H-indazol-7-yl)-1H-pyrazole-4-sulfonamide] | > 2500 nM | < 400 nM | – | –
Cn1ncc2cccc(NS(=O)(=O)c3cnn(-c4cc(C5(C#N)CC5)ccn4)c3)c21 [Compound I-469, 1-(4-(1-cyanocyclopropyl)pyridin-2-yl)-N-(1-methyl-1H-indazol-7-yl)-1H-pyrazole-4-sulfonamide] | > 2500 nM | – | – | < 400 nM
Cn1ncc2cccc(NS(=O)(=O)c3cnn(-c4cc(N5CCC6(CC6)C5)ccn4)c3)c21 [Compound I-410, 1-(4-{5-azaspiro[2.4]heptan-5-yl}pyridin-2-yl)-N-(1-methylindazol-7-yl)pyrazole-4-sulfonamide] | > 2500 nM | < 400 nM | – | –
